Source: PubChem BioAssay AID256 (DTP/NCI, 2004)
Several values for one entry are separate records, joined by “and”; a condition that tells them apart may be missing. Identical values can stand only once. Inconclusive results and toxic doses are left out.

Test system: CD2F1 mice, L1210 leukemia ip, survival T/C
Assay: NCI In Vivo Anticancer Drug Screen. Data for tumor model L1210 Leukemia (intraperitoneal) in CD2F1 (CDF1) mice
Conditions: higher = longer survival
Method in brief: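 Implant tumor; dose compound or vehicle; measure endpoint in both groups; report treated divided by control.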

[1] = endpoint: mean survival time, dose: 50.0 mg/kg/injection, schedule: Q01DX009 (ip), vehicle: saline with Tween-80
[2] = endpoint: mean survival time, dose: 100.0 mg/kg/injection, schedule: Q01DX009 (ip), vehicle: saline with Tween-80
[3] = endpoint: mean survival time, dose: 200.0 mg/kg/injection, schedule: Q01DX009 (ip), vehicle: saline with Tween-80
[4] = endpoint: mean survival time, dose: 400.0 mg/kg/injection, schedule: Q01DX009 (ip), vehicle: saline with Tween-80
[5] = endpoint: mean survival time, dose: 100.0 mg/kg/injection, schedule: Q01DX009 (ip), vehicle: saline
[6] = endpoint: mean survival time, dose: 200.0 mg/kg/injection, schedule: Q01DX009 (ip), vehicle: saline
[7] = endpoint: mean survival time, dose: 400.0 mg/kg/injection, schedule: Q01DX009 (ip), vehicle: saline
[8] = endpoint: mean survival time, dose: 12.5 mg/kg/injection, schedule: Q01DX009 (ip), vehicle: saline
[9] = endpoint: mean survival time, dose: 25.0 mg/kg/injection, schedule: Q01DX009 (ip), vehicle: saline
[10] = endpoint: mean survival time, dose: 50.0 mg/kg/injection, schedule: Q01DX009 (ip), vehicle: saline
[11] = endpoint: mean survival time, dose: 100.0 mg/kg/injection, schedule: Q04DX003 (ip), vehicle: saline with Tween-80
[12] = endpoint: mean survival time, dose: 200.0 mg/kg/injection, schedule: Q04DX003 (ip), vehicle: saline with Tween-80
[13] = endpoint: mean survival time, dose: 400.0 mg/kg/injection, schedule: Q04DX003 (ip), vehicle: saline with Tween-80
[14] = endpoint: mean survival time, dose: 100.0 mg/kg/injection, schedule: Q04DX003 (ip), vehicle: saline

## C/C(C(=O)O)=C(\C)c1ccccc1
endpoint: mean survival time, dose: 100.0 mg/kg/injection, schedule: Q04DX002 (ip), vehicle: saline with Tween-80
  T/C: 92 % of control
endpoint: mean survival time, dose: 200.0 mg/kg/injection, schedule: Q04DX002 (ip), vehicle: saline with Tween-80
  T/C: 103 % of control
endpoint: mean survival time, dose: 400.0 mg/kg/injection, schedule: Q04DX002 (ip), vehicle: saline with Tween-80
  T/C: 103 % of control

## C[n+]1c(O)c(C(=O)CCl)n2cc([N+](=O)[O-])ccc21
endpoint: mean survival time, dose: 12.5 mg/kg/injection, schedule: Q01DX009 (ip), vehicle: acetone
  T/C: 95 % of control
endpoint: mean survival time, dose: 25.0 mg/kg/injection, schedule: Q01DX009 (ip), vehicle: acetone
  T/C: 101 % of control
endpoint: mean survival time, dose: 50.0 mg/kg/injection, schedule: Q01DX009 (ip), vehicle: acetone
  T/C: 90 % of control

## CC(C)C1=CC2=CCC3C(C)(C(=O)O)CCCC3(C)C2CC1 (stereo unspecified)
endpoint: mean survival time, dose: 25.0 mg/kg/injection, schedule: Q01DX009 (ip), vehicle: saline with Tween-80
  T/C: 103 % of control
[1]
  T/C: 98 % of control
endpoint: mean survival time, dose: 100.0 mg/kg/injection, schedule: Q01DX001 (ip), vehicle: saline with Tween-80
  T/C: 98 % of control
[2]
  T/C: 96 % of control
endpoint: mean survival time, dose: 200.0 mg/kg/injection, schedule: Q01DX001 (ip), vehicle: saline with Tween-80
  T/C: 95 % of control
[3]
  T/C: 96 % of control
endpoint: mean survival time, dose: 400.0 mg/kg/injection, schedule: Q01DX001 (ip), vehicle: saline with Tween-80
  T/C: 102 % of control
[4]
  T/C: 97 % of control

## O=C(O)c1cccc(-c2ccccc2)c1
[5]
  T/C: 104 % of control
[6]
  T/C: 154 % of control
[7]
  T/C: 93 % of control

## CN(C)CC(Cl)CCl (stereo unspecified)
[8]
  T/C: 98 % of control
[9]
  T/C: 98 % of control
[10]
  T/C: 104 % of control
[5]
  T/C: 105 % of control and 108 % of control
[6]
  T/C: 116 % of control and 101 % of control

## Cc1cc(Cl)c(OCC(=O)O)c(Cl)c1
[11]
  T/C: 100 % of control
[12]
  T/C: 100 % of control

## Cc1nnc2ncccn12
[8]
  T/C: 96 % of control and 102 % of control
[9]
  T/C: 96 % of control and 97 % of control
[10]
  T/C: 92 % of control and 96 % of control
[5]
  T/C: 95 % of control and 97 % of control
[6]
  T/C: 90 % of control and 96 % of control

## CC12CCCCC1CCC(Br)C2=O (stereo unspecified)
[11]
  T/C: 102 % of control
[12]
  T/C: 100 % of control
[13]
  T/C: 102 % of control

## O=C1NC(=S)NC(=O)C1Cc1ccccc1O
endpoint: mean survival time, dose: 100.0 mg/kg/injection, schedule: Q01DX001 (ip), vehicle: saline
  T/C: 100 % of control
endpoint: mean survival time, dose: 200.0 mg/kg/injection, schedule: Q01DX001 (ip), vehicle: saline
  T/C: 100 % of control
endpoint: mean survival time, dose: 400.0 mg/kg/injection, schedule: Q01DX001 (ip), vehicle: saline
  T/C: 101 % of control

## CC(C)CN1CCOCC1
[1]
  T/C: 95 % of control
[2]
  T/C: 97 % of control
[11]
  T/C: 107 % of control
[12]
  T/C: 98 % of control

## CC(CC(C(=O)O)C(=O)O)C(=O)O (stereo unspecified)
endpoint: mean survival time, dose: 12.5 mg/kg/injection, schedule: Q01DX009 (ip), vehicle: water
  T/C: 93 % of control
endpoint: mean survival time, dose: 25.0 mg/kg/injection, schedule: Q01DX009 (ip), vehicle: water
  T/C: 93 % of control
endpoint: mean survival time, dose: 50.0 mg/kg/injection, schedule: Q01DX009 (ip), vehicle: water
  T/C: 93 % of control
endpoint: mean survival time, dose: 100.0 mg/kg/injection, schedule: Q01DX009 (ip), vehicle: water
  T/C: 91 % of control

## Cc1nc(C)c(Br)s1
endpoint: mean survival time, dose: 25.0 mg/kg/injection, schedule: Q04DX003 (ip), vehicle: saline
  T/C: 112 % of control
endpoint: mean survival time, dose: 50.0 mg/kg/injection, schedule: Q04DX003 (ip), vehicle: saline
  T/C: 104 % of control
[14]
  T/C: 106 % of control

## O=C(O)CCCCc1ccccc1
[2]
  T/C: 93 % of control
[11]
  T/C: 106 % of control
[3]
  T/C: 98 % of control
[12]
  T/C: 92 % of control
[4]
  T/C: 102 % of control
[13]
  T/C: 106 % of control

## CCCCc1ccc(N=Cc2ccc(C=Nc3ccc(CCCC)cc3)cc2)cc1
[11]
  T/C: 94 % of control
[12]
  T/C: 89 % of control
[13]
  T/C: 89 % of control

## NC(=O)N(CCCl)N=O
endpoint: mean survival time, dose: 1.0 mg/kg/injection, schedule: Q01DX007 (ip), vehicle: saline
  T/C: 292 % of control
endpoint: mean survival time, dose: 1.0 mg/kg/injection, schedule: Q01DX009 (ip), vehicle: saline
  T/C: 273 % of control
endpoint: mean survival time, dose: 1.0 mg/kg/injection, schedule: Q03DX003 (ip), vehicle: saline
  T/C: 187 % of control
endpoint: mean survival time, dose: 1.0 mg/kg/injection, schedule: Q04DX003 (ip), vehicle: saline
  T/C: 188 % of control
endpoint: mean survival time, dose: 2.0 mg/kg/injection, schedule: Q01DX007 (ip), vehicle: saline
  T/C: 242 % of control
endpoint: mean survival time, dose: 2.0 mg/kg/injection, schedule: Q01DX009 (ip), vehicle: saline
  T/C: 220 % of control
endpoint: mean survival time, dose: 2.0 mg/kg/injection, schedule: Q03DX003 (ip), vehicle: saline
  T/C: 286 % of control
endpoint: mean survival time, dose: 2.0 mg/kg/injection, schedule: Q04DX003 (ip), vehicle: saline
  T/C: 284 % of control
endpoint: mean survival time, dose: 4.0 mg/kg/injection, schedule: Q01DX007 (ip), vehicle: saline
  T/C: 105 % of control
endpoint: mean survival time, dose: 4.0 mg/kg/injection, schedule: Q01DX009 (ip), vehicle: saline
  T/C: 101 % of control
endpoint: mean survival time, dose: 4.0 mg/kg/injection, schedule: Q04DX003 (ip), vehicle: saline
  T/C: 308 % of control

## CC#CN(CC)CC
endpoint: mean survival time, dose: 75.0 mg/kg/injection, schedule: Q01DX001 (ip), vehicle: saline
  T/C: 105 % of control
endpoint: mean survival time, dose: 150.0 mg/kg/injection, schedule: Q01DX001 (ip), vehicle: saline
  T/C: 106 % of control

## CSc1ncnc2nn(C3OC(COC(=O)c4ccccc4)C(OC(=O)c4ccccc4)C3OC(=O)c3ccccc3)nc12 (stereo unspecified)
endpoint: median survival time, dose: 12.5 mg/kg/injection, schedule: Q01DX005 (ip), vehicle: Klucel (hydroxypropylcellulose) (HPC)
  T/C: 94 % of control
endpoint: median survival time, dose: 25.0 mg/kg/injection, schedule: Q01DX005 (ip), vehicle: Klucel (hydroxypropylcellulose) (HPC)
  T/C: 86 % of control
endpoint: median survival time, dose: 50.0 mg/kg/injection, schedule: Q01DX005 (ip), vehicle: Klucel (hydroxypropylcellulose) (HPC)
  T/C: 87 % of control
endpoint: median survival time, dose: 100.0 mg/kg/injection, schedule: Q01DX005 (ip), vehicle: Klucel (hydroxypropylcellulose) (HPC)
  T/C: 93 % of control and 95 % of control
endpoint: median survival time, dose: 200.0 mg/kg/injection, schedule: Q01DX005 (ip), vehicle: Klucel (hydroxypropylcellulose) (HPC)
  T/C: 89 % of control and 95 % of control
endpoint: median survival time, dose: 400.0 mg/kg/injection, schedule: Q01DX005 (ip), vehicle: Klucel (hydroxypropylcellulose) (HPC)
  T/C: 95 % of control

## CN(C)N=Nc1ccccc1[N+](=O)[O-]
endpoint: mean survival time, dose: 53.0 mg/kg/injection, schedule: Q01DX001 (ip), vehicle: saline
  T/C: 105 % of control
endpoint: mean survival time, dose: 53.0 mg/kg/injection, schedule: Q01DX009 (ip), vehicle: saline
  T/C: 104 % of control
endpoint: mean survival time, dose: 79.0 mg/kg/injection, schedule: Q01DX001 (ip), vehicle: saline
  T/C: 105 % of control
endpoint: mean survival time, dose: 79.0 mg/kg/injection, schedule: Q01DX009 (ip), vehicle: saline
  T/C: 109 % of control
endpoint: mean survival time, dose: 119.0 mg/kg/injection, schedule: Q01DX001 (ip), vehicle: saline
  T/C: 108 % of control
endpoint: mean survival time, dose: 119.0 mg/kg/injection, schedule: Q01DX009 (ip), vehicle: saline
  T/C: 118 % of control
endpoint: mean survival time, dose: 178.0 mg/kg/injection, schedule: Q01DX001 (ip), vehicle: saline
  T/C: 115 % of control
endpoint: mean survival time, dose: 600.0 mg/kg/injection, schedule: Q01DX001 (ip), vehicle: saline
  T/C: 118 % of control

## CN(C)c1ccc(/C=N/NC(=O)c2ccccc2NC(=O)c2ccccc2Cl)cc1
endpoint: mean survival time, dose: 50.0 mg/kg/injection, schedule: Q01DX009 (ip), vehicle: Klucel (hydroxypropylcellulose) (HPC)
  T/C: 87 % of control
endpoint: mean survival time, dose: 100.0 mg/kg/injection, schedule: Q01DX009 (ip), vehicle: Klucel (hydroxypropylcellulose) (HPC)
  T/C: 94 % of control
endpoint: mean survival time, dose: 200.0 mg/kg/injection, schedule: Q01DX009 (ip), vehicle: Klucel (hydroxypropylcellulose) (HPC)
  T/C: 91 % of control

## O=C(O)c1ccc(C(=O)O)s1.[NH-]C1CCCCC1[NH-].[Pt+2]
endpoint: mean survival time, dose: 2.5 mg/kg/injection, schedule: Q04DX003 (ip), vehicle: dextrose
  T/C: 113 % of control
endpoint: mean survival time, dose: 5.0 mg/kg/injection, schedule: Q04DX003 (ip), vehicle: dextrose
  T/C: 118 % of control
endpoint: mean survival time, dose: 20.0 mg/kg/injection, schedule: Q04DX003 (ip), vehicle: dextrose
  T/C: 113 % of control

## CCC(C)CC(=O)O (stereo unspecified)
[5]
  T/C: 95 % of control
[14]
  T/C: 102 % of control
[6]
  T/C: 98 % of control
endpoint: mean survival time, dose: 200.0 mg/kg/injection, schedule: Q04DX003 (ip), vehicle: saline
  T/C: 102 % of control
[7]
  T/C: 96 % of control
endpoint: mean survival time, dose: 400.0 mg/kg/injection, schedule: Q04DX003 (ip), vehicle: saline
  T/C: 97 % of control

## COc1ccccc1[As](=O)(O)CC(O)COc1ccc(Cl)cc1Cl (stereo unspecified)
endpoint: mean survival time, dose: 6.25 mg/kg/injection, schedule: Q04DX003 (ip), vehicle: saline
  T/C: 98 % of control
endpoint: mean survival time, dose: 12.5 mg/kg/injection, schedule: Q04DX003 (ip), vehicle: saline
  T/C: 96 % of control
